Experimental data as given in ChEMBL document CHEMBL1137102, “Synthesis and evaluation of 2-amino-8-alkoxy quinolines as MCHr1 antagonists. Part 1” (Bioorg Med Chem Lett, 2004).
pIC50: −log10 of the molar value.

How the values were obtained:
[1] = molecular target: T1, Melanin-concentrating hormone receptor 1 (Homo sapiens, UniProt Q99705); test: Concentration required to inhibit binding of [125I]MCH radioligand to human melanin-concentrating hormone receptor 1 in IMR-32 I3.4.2 cell membranes
[2] = molecular target: T1, Melanin-concentrating hormone receptor 1; test: Concentration required to inhibit 50% of melanin-concentrating hormone induced [Ca2+] flux in IMR-32 cells measured by using a fluorometric imaging plate reader; type: functional, cell-based
[3] = Maximum concentration in brain was determined at the peroral dose of 10 mg/kg in diet-induced obese (DIO) mice; unit may be (ng/mL or ng/g); type: ADME, organism-based; parameters: dose 10 mg/kg, route oral; details: mouse, po
[4] = Maximum concentration in plasma was determined at the peroral dose of 10 mg/kg in diet-induced obese (DIO) mice; unit may be (ng/mL or ng/g); type: ADME, organism-based; parameters: dose 10 mg/kg, route oral; details: mouse, po
[5] = Half life in brain was determined at the peroral dose of 10 mg/kg in diet-induced obese (DIO) mice; type: ADME, organism-based; parameters: dose 10 mg/kg, route oral; details: mouse, po
[6] = Half life in plasma was determined at the peroral dose of 10 mg/kg in diet-induced obese (DIO) mice; type: ADME, organism-based; parameters: dose 10 mg/kg, route oral; details: mouse, po
[7] = Area under curve in plasma was determined at the peroral dose of 10 mg/kg in diet-induced obese (DIO) mice; unit may be (ng.h/mL or ng. h/g); type: ADME, organism-based; parameters: dose 10 mg/kg, route oral; details: mouse, in vivo, po
[8] = Area under curve in brain was determined at the peroral dose of 10 mg/kg in diet-induced obese (DIO) mice; unit may be (ng.h/mL or ng. h/g); type: ADME, organism-based; parameters: dose 10 mg/kg, route oral; details: mouse, in vivo, po

T1 sequence (Q99705 whole entry): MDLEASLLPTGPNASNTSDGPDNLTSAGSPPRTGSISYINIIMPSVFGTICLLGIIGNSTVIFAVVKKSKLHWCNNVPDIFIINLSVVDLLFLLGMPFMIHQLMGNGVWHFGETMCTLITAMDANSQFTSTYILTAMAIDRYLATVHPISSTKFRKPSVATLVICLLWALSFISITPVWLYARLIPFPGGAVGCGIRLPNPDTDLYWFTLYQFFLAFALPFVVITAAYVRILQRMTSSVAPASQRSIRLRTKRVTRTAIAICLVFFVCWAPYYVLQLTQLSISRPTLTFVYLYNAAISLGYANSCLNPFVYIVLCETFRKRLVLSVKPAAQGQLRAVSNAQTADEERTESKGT

Row | Structure (SMILES) | pIC50 [1] | pIC50 [2] | other results
1 | Nc1ccc2cccc(O)c2n1 | < 5.70 | – | –
2 | CC(C)COc1cccc2ccc(N)nc12 | < 5.70 | – | –
3 | CC(CC(C)(C)C)Oc1cccc2ccc(N3CCCCC3)nc12 (stereo not drawn) | < 5.70 | < 5.00 | –
4 | COCCOCCOc1cccc2ccc(N)nc12 | < 5.70 | – | –
5 | CC1CCC(Oc2cccc3ccc(N)nc23)C1 (stereo not drawn) | 6.08 | – | –
6 | CC1CCCC(Oc2cccc3ccc(N)nc23)C1 (stereo not drawn) | 6.19 | – | –
7 | CCOCC(C)Oc1cccc2ccc(N)nc12 (stereo not drawn) | 5.97 | – | –
8 | CSCCOc1cccc2ccc(N)nc12 | < 5.70 | – | –
9 | CC(CC(C)(C)C)Oc1cccc2ccc(NCC3CC3)nc12 (stereo not drawn) | < 5.70 | < 5.00 | –
10 | Nc1ccc2cccc(OCCC3CCCCC3)c2n1 | 6.09 | – | –
11 | CC(C)CCOc1cccc2ccc(N)nc12 | 6.21 | – | –
12 | CC1CCC(Oc2cccc3ccc(N)nc23)CC1 (stereo not drawn) | 6.46 | – | –
13 | CC(CC(C)(C)C)Oc1cccc2ccc(N(C)C)nc12 (stereo not drawn) | < 5.70 | < 5.00 | –
14 | Nc1ccc2cccc(OCC3CCC3)c2n1 | 6.36 | – | –
15 | CCOCCOc1cccc2ccc(N)nc12 | < 5.70 | – | –
16 | CCC(CC)Oc1cccc2ccc(N)nc12 | 6.49 | – | –
17 | COCCOc1cccc2ccc(N)nc12 | < 5.70 | – | –
18 | Nc1ccc2cccc(OC3CCCCC3)c2n1 | 6.44 | – | –
19 | CCCCCOc1cccc2ccc(N)nc12 | 6.24 | – | –
20 | CC1CC1COc1cccc2ccc(N)nc12 (stereo not drawn) | 5.79 | – | –

Row | Structure (SMILES) | pIC50 [1] | pIC50 [2] | other results
21 | CCCCOc1cccc2ccc(N)nc12 | 6.10 | – | –
22 | Nc1ccc2cccc(OCC3CCCO3)c2n1 (stereo not drawn) | < 5.70 | – | –
23 | Nc1ccc2cccc(OCCC3CC3)c2n1 | 6.31 | – | –
24 | Nc1ccc2cccc(OCCC(F)(F)F)c2n1 | 6.14 | – | –
25 | CCCCCCOc1cccc2ccc(N)nc12 | 6.09 | – | –
26 | Nc1ccc2cccc(OC3CCC3)c2n1 | < 5.70 | – | –
27 | COCC(C)Oc1cccc2ccc(N)nc12 (stereo not drawn) | 6.22 | – | –
28 | Nc1ccc2cccc(OC3CCCC3)c2n1 | < 5.70 | – | –
29 | CC(C)=CCOc1cccc2ccc(N)nc12 | < 5.70 | – | –
30 | CC(C)OCCOc1cccc2ccc(N)nc12 | < 5.70 | – | –
31 | CC(CC(C)(C)C)Oc1cccc2cccnc12 (stereo not drawn) | < 5.70 | < 5.00 | –
32 | CC(C)Oc1cccc2ccc(N)nc12 | 6.36 | – | –
33 | Nc1ccc2cccc(OCC3CC3)c2n1 | < 5.70 | – | –
34 | CCC#CCOc1cccc2ccc(N)nc12 | < 5.70 | – | –
35 | CC#CCCOc1cccc2ccc(N)nc12 | < 5.70 | – | –
36 | CCCOc1cccc2ccc(N)nc12 | 5.96 | – | –
37 | CC(CC(C)(C)C)Oc1cccc2ccc(N3CCCC3)nc12 (stereo not drawn) | < 5.70 | < 5.00 | –
38 | COc1cccc2ccc(N)nc12 | 5.80 | – | –
39 | CC(CC(C)(C)C)Oc1cccc2ccc(N)nc12 (single isomer, unassigned; (+)) | 6.26 | 5.35 | –

Now those with a higher pIC50 [1], led by results:

Row | pIC50 [1] | pIC50 [2] | Structure (SMILES) | other results
40 | 6.86 | 5.46 | Nc1ccc2cccc(OC3CCCCCC3)c2n1 | –
41 | 6.51 | 5.22 | CNc1ccc2cccc(OC(C)CC(C)(C)C)c2n1 (stereo not drawn) | –
42 | 7.22 | 6.28 | CC(CC(C)(C)C)Oc1cccc2ccc(NCc3ccc(-c4ccccc4Cl)o3)nc12 (stereo not drawn) | –
43 | 6.70 | – | CC(C)C(C)Oc1cccc2ccc(N)nc12 (stereo not drawn) | –
44 | 6.86 | 5.76 | Nc1ccc2cccc(OCC3CC4CCC3C4)c2n1 (stereo not drawn) | –
45 | 7.28 | 5.64 | Nc1ccc2cccc(OCC3CCCC3)c2n1 | –
46 | 6.76 | 5.27 | CCC(C)Oc1cccc2ccc(N)nc12 (stereo not drawn) | –
47 | 6.98 | 6.07 | CCCC(C)Oc1cccc2ccc(N)nc12 (stereo not drawn) | –
48 | 6.51 | – | CC(COC(C)(C)C)Oc1cccc2ccc(N)nc12 (stereo not drawn) | –
49 | 6.88 | 5.33 | COC(C)(C)CCOc1cccc2ccc(N)nc12 | –
50 | 7.49 | 5.88 | CC1CCCCC1Oc1cccc2ccc(N)nc12 (stereo not drawn) | –
51 | 7.44 | – | CCC(C)COc1cccc2ccc(N)nc12 (stereo not drawn) | –
52 | 6.94 | 5.20 | Nc1ccc2cccc(OCC3CCOC3)c2n1 (stereo not drawn) | –
53 | 6.70 | – | CC(C)(C)CCOc1cccc2ccc(N)nc12 | –
54 | 7.05 | 5.77 | Nc1ccc2cccc(OCC3CCCCC3)c2n1 | –
55 | 6.72 | 5.89 | CCC(CC)C(C)Oc1cccc2ccc(N)nc12 (stereo not drawn) | –
56 | 7.70 | 7.05 | CC(CC(C)(C)C)Oc1cccc2ccc(N)nc12 (single isomer, unassigned) | Cmax [3]: 595 ng/mL; Cmax [4]: 127 ng/mL; half-life [5]: 2.3 h; half-life [6]: 1.9 h; AUC [7]: 247 ng·h/mL; AUC [8]: 1030 ng·h/mL
57 | 7.39 | 6.68 | CC(CC(C)(C)C)Oc1cccc2ccc(N)nc12 (stereo in doubt; 19) | –
